# Experimental data from US20240308976A1, “COMPOUNDS THAT MEDIATE PROTEIN DEGRADATION AND USES THEREOF” (Monte Rosa Therapeutics, Inc., priority 2021, published 2024).
# Columns and labels:
# CRBN-DDB1 = CRBN-DDB1 (Homo sapiens, UniProt Q96SW2); experiment: Compound binding to CRBN by HTRF assay; details: CRBN-DDB1 2.5 nM, Cy5-Thalidomide 100 nM, 30 min at ambient temperature; read-out: HTRF Class (Cereblon binding, HTRF IC50)
# Description: Example 146: Compound Binding to CRBN by HTRF Assay
# Compound activity was monitored in a Homogenous Time-Resolved Fluorescence (HTRF) assay using 1-[5-({2-[2-(2-{[2-(2,6-dioxopiperidin-3-yl)-1,3-dioxo-2,3-dihydro-1H-isoindol-4-yl]oxy}acetamido)ethoxy]ethyl}carbamoyl)pentyl]-3,3-dimethyl-2-[(1E,3E)-5-[(2E)-1,3,3-trimethyl-5-sulfo-2,3-dihydro-1H-indol-2-ylidene]penta-1,3-dien-1-yl]-3H-indol-1-ium-5-sulfonate as a fluorescent probe. Biochemical assays were conducted in Greiner white 384 well HiBase plates (Cat. No 784075-25) in 10 μL total volume. A one pot detection solution of CRBN-DDB1 (2.5 nM), Anti-His Terbium Cryptate Gold (1X, PerkinElmer Cat. #: 61HI2TLB), and Cy5-Thalidomide (100 nM, Tenova Cat.: T52461) was prepared in 20 mM HEPES, 20 mM NaCl, 0.2 mM TCEP, 0.2 mM EDTA, and 0.005% Tween20 was dispensed to each assay plate. Compounds were stored in dry, ambient temperatures at 10 mM. A 10-point, 1:3 dilution series was prepared from 10 mM stock concentrations in Echo-compatible LDV plates. 10 nL of each compound dilution series was dispensed into assays wells using an Echo 650 (Labcyte inc. USA). 10 nL of 10 mM Lenalidomide was transferred into the active-control wells for the assay and 10 nL of DMSO was transferred into the neutral-control wells. The assay was then allowed to incubate for 30 min at ambient temperature after transferring compound. Plate measurements were taken on a Pherastar FSX (BMG Labtech, Germany) using the HTRF Red filter (Ex. 337 nm, em1: 620 nm, em2: 665 nm) (Flashes: 50, Integration time: 60-400 us, Z-height: 10 mm, Ratio-multiplier: 10,000). The HTRF signal was then subsequently normalized to the neutral and active controls. Analysis and IC50 values were derived using KNIME analytics (KNIME Zurich) transformation and fitting within Collaborative Drug Discovery (Collaborative Drug Discovery USA). Ki was derived from the geometric mean of the IC50 values using the Cheng-Prustoff transformation.
# (§1) In Table 2, each compound is assigned a class (HTRF class) indicating the ability for Cereblon binding by means of their HTRF IC50 values according to […]: A, B, C or D. According to the code, A represents an IC50 value of ≤100 nM, B represents an IC50 value>100 nM and ≤1000 nM, C represents an IC50 value>1000 nM. IF Class assigns each compound a code indicating the ability for GSPT1 degradation: A, B or C. According to the code, A represents a DC50 value of ≤30 nM, B represents a DC50 value>30 nM and ≤300 nM and C represents a DC50 value of >300 nM.
# GSPT1 = biological target: T1, GSPT1 (Homo sapiens, UniProt P15170+Q96SW2); experiment: Immunofluorescence assay for activity to degrade GSPT1 in CAL-51 cells; format: cell-based; details: 6 h treatment, read-out: IF Class (GSPT1 degradation, DC50)
# T1 construct: CAL-51 cells were purchased from DSMZ (cat. Number ACC302); host or cells: CAL-51
# T1 sequence (P15170 whole entry): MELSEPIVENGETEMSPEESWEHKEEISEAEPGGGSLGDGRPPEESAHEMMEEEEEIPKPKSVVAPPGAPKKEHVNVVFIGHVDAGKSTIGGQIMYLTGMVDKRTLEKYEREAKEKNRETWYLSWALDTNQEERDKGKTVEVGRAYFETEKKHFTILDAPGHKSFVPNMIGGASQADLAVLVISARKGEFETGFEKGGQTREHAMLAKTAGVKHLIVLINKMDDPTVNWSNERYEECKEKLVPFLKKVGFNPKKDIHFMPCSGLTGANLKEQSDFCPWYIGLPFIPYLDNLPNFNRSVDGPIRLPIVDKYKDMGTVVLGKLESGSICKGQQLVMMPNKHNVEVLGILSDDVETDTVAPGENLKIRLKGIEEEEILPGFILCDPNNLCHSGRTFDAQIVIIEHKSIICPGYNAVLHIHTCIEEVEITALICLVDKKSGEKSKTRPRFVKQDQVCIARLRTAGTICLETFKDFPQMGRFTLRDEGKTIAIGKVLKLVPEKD
# T1 sequence (Q96SW2 whole entry): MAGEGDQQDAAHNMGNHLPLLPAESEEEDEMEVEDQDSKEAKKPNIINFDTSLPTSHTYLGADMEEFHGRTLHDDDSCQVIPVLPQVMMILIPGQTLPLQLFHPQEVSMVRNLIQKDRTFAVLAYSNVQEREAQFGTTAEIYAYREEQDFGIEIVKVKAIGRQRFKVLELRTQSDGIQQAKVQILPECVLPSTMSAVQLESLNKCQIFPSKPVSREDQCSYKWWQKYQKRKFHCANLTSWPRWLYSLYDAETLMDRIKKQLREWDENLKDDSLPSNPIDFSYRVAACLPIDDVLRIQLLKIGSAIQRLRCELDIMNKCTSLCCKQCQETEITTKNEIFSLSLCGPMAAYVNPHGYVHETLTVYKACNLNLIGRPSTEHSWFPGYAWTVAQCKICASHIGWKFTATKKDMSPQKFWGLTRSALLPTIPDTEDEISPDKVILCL
# T1 sequence (Q16531 2-1140 partner limits assumed): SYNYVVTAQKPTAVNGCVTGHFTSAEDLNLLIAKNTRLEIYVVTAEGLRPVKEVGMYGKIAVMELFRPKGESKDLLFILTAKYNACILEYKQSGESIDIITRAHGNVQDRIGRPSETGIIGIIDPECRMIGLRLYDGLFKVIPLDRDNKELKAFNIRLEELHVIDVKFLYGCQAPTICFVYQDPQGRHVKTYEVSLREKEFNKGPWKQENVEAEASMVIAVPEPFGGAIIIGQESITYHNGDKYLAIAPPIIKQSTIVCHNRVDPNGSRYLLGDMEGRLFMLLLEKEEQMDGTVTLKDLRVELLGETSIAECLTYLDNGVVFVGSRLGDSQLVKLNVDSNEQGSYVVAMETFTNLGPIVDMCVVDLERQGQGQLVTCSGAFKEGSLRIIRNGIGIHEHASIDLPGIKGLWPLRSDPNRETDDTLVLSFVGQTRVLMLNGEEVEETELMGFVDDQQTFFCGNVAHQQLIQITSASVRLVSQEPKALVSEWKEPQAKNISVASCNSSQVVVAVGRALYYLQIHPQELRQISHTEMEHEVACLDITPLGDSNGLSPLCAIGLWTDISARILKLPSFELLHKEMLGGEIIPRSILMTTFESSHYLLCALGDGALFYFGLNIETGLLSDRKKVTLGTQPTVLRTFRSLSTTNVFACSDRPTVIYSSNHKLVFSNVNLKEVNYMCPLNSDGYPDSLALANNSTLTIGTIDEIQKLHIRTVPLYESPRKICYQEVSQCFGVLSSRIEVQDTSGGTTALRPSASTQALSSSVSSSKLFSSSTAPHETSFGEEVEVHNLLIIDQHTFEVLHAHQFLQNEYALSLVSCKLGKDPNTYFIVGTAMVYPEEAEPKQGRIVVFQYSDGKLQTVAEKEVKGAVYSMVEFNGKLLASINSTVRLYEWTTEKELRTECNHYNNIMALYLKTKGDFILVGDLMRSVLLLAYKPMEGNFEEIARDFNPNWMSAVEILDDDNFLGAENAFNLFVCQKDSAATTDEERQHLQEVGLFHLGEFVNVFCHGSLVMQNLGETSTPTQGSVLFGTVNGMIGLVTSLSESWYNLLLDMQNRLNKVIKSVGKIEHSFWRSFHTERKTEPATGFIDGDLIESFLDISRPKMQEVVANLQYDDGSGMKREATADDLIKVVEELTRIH
# Description: Example 147: Compound Activity by Immunofluorescence Assay
# The representative compounds were tested in an immunofluorescence assay for their activity to degrade GSPT1. CAL-51 cells were purchased from DSMZ (cat. Number ACC302), sub-cultured in 90% Dulbecco's MEM (4.5 g/L glucose, Gibco 11965)+10% heat inactivated FBS (BioConcept, 2-01F136I) and incubated at 37° C., 5% CO2. For the assay imaging microtiter plate Cell Carrier 96 Ultra (Perkin Elmer 6055302) were pre-coated with Fibronectin (Sigma F085, 30 μL at 0.2 μg/mL) in PBS (100 μL, Gibco 14190) for 45 min at room temperature, rinsed with PBS and CAL-51 cells (30K cells/well) were plated and let to adhere overnight. Cells were treated with compounds typically using a serial dilution ranging from 30 μM to 0.1 nM for 6 h. Compounds were stored at 10 mM DMSO stocks. Vehicle (DMSO), positive (CC-885, 10 μM) and rescue controls (positive control plus 0.2 μM bortezomib) were also included at this stage. Cells were subsequently rinsed with PBS and fixed in 10% Formalin solution (50 μL, Sigma HT5011)) for 20 mins at room temperature. Following three consecutive PBS washes (100 μL), cells were permeabilized in 0.1% Triton X-100 in PBS (Sigma 93443, 50 μL) for 15 min. at room temperature. Following three further PBS washes, 50 μL blocking buffer (1% BSA, Sigma A4503, in PBS) was added for 45 min for signal-to noise reduction. Primary antibody (human GSPT1, Sigma HPA052488) was diluted in blocking buffer (dil.1/300, 35 μL/well) and incubated with the cells overnight at 4° C. After three PBS washes, Alexa-fluor 488 coupled secondary antibodies (Invitrogen, A32731, dil. 1/1000), Alexa-fluor 647-Phalloidin (Invitrogen, A22287, dil. 1/200) and DAPI (Thermo, #62248, dil. 1/1000) were diluted in blocking buffer and incubated with the samples for 2 h at room temperature. After three final PBS washes, samples were conserved in 100 μL PBS in the dark, until measurement. Image acquisition was performed on the Operetta High-Content Imager (Perkin-Elmer). Fluorescence intensity of […] (GSPT1), Alexa-Fluor 647 (Actin) and DAPI (Nucleus) were measured. For the determination of GSPT1 DC50 values, a custom algorithm implemented in the PerkinElmer image analysis software Harmony-Acapella® was developed. After user-defined setting of adjustment parameters, the analysis was run identically without human intervention for all image fields. DAPI staining of the nuclei was used to determine the location of cells using standard nuclei detection modules. Segmentation artifacts were removed by threshold-based filters for area, roundness and intensity. The outline of the cells was determined analogously from the sum of the normalized, smoothed DAPI and Actin channel, starting from each nucleus. The Alexa-Fluor 488 (GSPT1) signal intensity in each cell was finally measured, in order to obtain a Mean intensity per cell. GSPT1 degradation (DC50) was calculated after normalization to controls and data import in CDD vault Database, using non-linear regression.
# as §1
# Chain of CRBN-DDB1 (Q96SW2 whole entry): as the sequence (Q96SW2 whole entry) above
# Chain of CRBN-DDB1 (Q16531 whole entry partner): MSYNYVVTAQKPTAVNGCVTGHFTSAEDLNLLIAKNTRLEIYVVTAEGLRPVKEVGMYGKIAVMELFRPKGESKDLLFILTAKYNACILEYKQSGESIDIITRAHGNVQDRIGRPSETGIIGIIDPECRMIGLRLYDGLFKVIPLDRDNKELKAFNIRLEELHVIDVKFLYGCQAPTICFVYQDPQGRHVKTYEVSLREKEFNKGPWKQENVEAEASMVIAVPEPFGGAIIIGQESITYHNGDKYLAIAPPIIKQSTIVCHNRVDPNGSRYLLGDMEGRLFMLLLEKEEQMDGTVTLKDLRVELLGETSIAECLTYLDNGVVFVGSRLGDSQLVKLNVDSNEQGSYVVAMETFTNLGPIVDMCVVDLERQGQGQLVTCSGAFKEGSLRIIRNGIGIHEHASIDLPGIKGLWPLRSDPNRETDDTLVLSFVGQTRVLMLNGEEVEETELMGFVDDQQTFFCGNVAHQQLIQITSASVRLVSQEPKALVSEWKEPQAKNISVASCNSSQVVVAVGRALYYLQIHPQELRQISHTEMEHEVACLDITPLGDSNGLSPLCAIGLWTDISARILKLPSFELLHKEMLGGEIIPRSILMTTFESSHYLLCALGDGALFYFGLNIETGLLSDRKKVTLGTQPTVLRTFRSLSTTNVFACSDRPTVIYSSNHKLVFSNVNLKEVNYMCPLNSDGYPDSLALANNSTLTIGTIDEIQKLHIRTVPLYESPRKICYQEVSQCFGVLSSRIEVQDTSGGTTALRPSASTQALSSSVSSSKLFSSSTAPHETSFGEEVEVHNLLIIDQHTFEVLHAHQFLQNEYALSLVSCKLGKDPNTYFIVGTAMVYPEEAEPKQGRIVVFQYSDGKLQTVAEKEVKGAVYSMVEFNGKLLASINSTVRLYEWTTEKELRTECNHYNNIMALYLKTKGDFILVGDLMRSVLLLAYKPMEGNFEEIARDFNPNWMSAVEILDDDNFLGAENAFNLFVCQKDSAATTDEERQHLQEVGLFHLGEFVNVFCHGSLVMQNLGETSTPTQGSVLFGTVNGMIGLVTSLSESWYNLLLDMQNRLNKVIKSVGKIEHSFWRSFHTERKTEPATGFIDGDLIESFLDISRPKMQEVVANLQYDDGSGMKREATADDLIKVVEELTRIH
Compound,IC50 (CRBN-DDB1),DC50 (GSPT1)
"Cc1cc(C)cc(NC(=O)NC2CN(c3cc(F)c(C4CCC(=O)NC4=O)c(F)c3)C2)c1 (stereo not drawn) [Compound 11, 1-(3,5-dimethylphenyl)-3-(1-(4-(2,6-dioxopiperidin-3-yl)-3,5-difluorophenyl)azetidin-3-yl)urea]",100 to 1000 nM,≤ 30 nM
"COC(=O)C12CC(NC(=O)OC3CN(c4cc(F)c(C5CCC(=O)NC5=O)c(F)c4)C3)(C1)C2 (stereo not drawn) [Compound 75, methyl 3-((((1-(4-(2,6-dioxopiperidin-3-yl)-3,5-difluorophenyl)azetidin-3-yl)oxy)carbonyl)amino)bicyclo[1.1.1]pentane-1-carboxylate]",100 to 1000 nM,30 to 300 nM
"O=C1CCC(c2c(F)cc(N3CC(OC(=O)N[C@H]4C[C@H](c5ccccc5)C4)C3)cc2F)C(=O)N1 (stereo partly drawn) [Compound 128, 1-(4-(2,6-dioxopiperidin-3-yl)-3,5-difluorophenyl)azetidin-3-yl((1R,3R)-3 phenylcyclobutyl) carbamate]",100 to 1000 nM,≤ 30 nM
"O=C1CCC(c2c(F)cc(N3CC(OC(=O)N[C@H]4CCCOC4)C3)cc2F)C(=O)N1 (stereo partly drawn) [Compound 84, 1-(4-(2,6-dioxopiperidin-3-yl)-3,5-difluorophenyl)azetidin-3-yl ((S)-tetrahydro-2H-pyran-3-yl)carbamate]",100 to 1000 nM,> 300 nM
"O=C1CCC(c2c(F)cc(N3CC(OC(=O)NCC(F)(F)F)C3)cc2F)C(=O)N1 (stereo not drawn) [Compound 87, 1-(4-(2,6-dioxopiperidin-3-yl)-3,5-difluorophenyl)azetidin-3-yl (2,2,2-trifluoroethyl)carbamate]",100 to 1000 nM,> 300 nM
"Cc1cc(NC(=O)OC2CN(c3cc(F)c(C4CCC(=O)NC4=O)c(F)c3)C2)ccc1F (stereo not drawn) [Compound 76, 1-(4-(2,6-dioxopiperidin-3-yl)-3,5-difluorophenyl)azetidin-3-yl (4-fluoro-3-methylphenyl)carbamate]",≤ 100 nM,≤ 30 nM
"Cc1ccc(NC(=O)NC2CN(c3ccc(C4CCC(=O)NC4=O)c(Cl)c3)C2)cc1Cl (stereo not drawn) [Compound 42, 1-(1-(3-chloro-4-(2,6-dioxopiperidin-3-yl)phenyl)azetidin-3-yl)-3-(3-chloro-4-methylphenyl)urea]",100 to 1000 nM,30 to 300 nM
"O=C1CCC(c2c(F)cc(N3CC(NC(=O)Nc4ccc(F)c(OC(F)F)c4)C3)cc2F)C(=O)N1 (stereo not drawn) [Compound 19, 1-(3-(difluoromethoxy)-4-fluorophenyl)-3-(1-(4-(2,6-dioxopiperidin-3-yl)-3,5-difluorophenyl)azetidin-3-yl)urea]",100 to 1000 nM,≤ 30 nM
"COc1c(N2CC(OC(=O)Nc3ccc(C)c(Cl)c3)C2)cc(F)c(C2CCC(=O)NC2=O)c1F (stereo not drawn) [Compound 46, 1-(4-(2,6-dioxopiperidin-3-yl)-3,5-difluoro-2-methoxyphenyl)azetidin-3-yl (3-chloro-4-methylphenyl) carbamate]",100 to 1000 nM,30 to 300 nM
"Cc1c(Cl)cc(NC(=O)OC2CN(c3cc(F)c(C4CCC(=O)NC4=O)c(F)c3)C2)cc1CN1CCOCC1 (stereo not drawn) [Compound 5, 1-(4-(2,6-dioxopiperidin-3-yl)-3,5-difluorophenyl) azetidin-3-yl(3-chloro-4-methyl-5-(morpholinomethyl)phenyl)carbamate]",≤ 100 nM,30 to 300 nM
"O=C1CCC(c2c(F)cc(N3CC(NC(=O)Nc4cc(F)cc(OC(F)(F)F)c4)C3)cc2F)C(=O)N1 (stereo not drawn) [Compound 50, 1-(1-(4-(2,6-dioxopiperidin-3-yl)-3,5-difluorophenyl)azetidin-3-yl)-3-(3-fluoro-5-(trifluoromethoxy)phenyl)urea]",100 to 1000 nM,30 to 300 nM
"Cc1ccc(NC(=O)OC2CN(c3ccc(C4CCC(=O)NC4=O)c(C#N)c3)C2)cc1Cl (stereo not drawn) [Compound 57, 1-(3-cyano-4-(2,6-dioxopiperidin-3-yl)phenyl)azetidin-3-yl(3-chloro-4-methylphenyl)carbamate]",> 1000 nM,30 to 300 nM
"Cc1cc(NC(=O)OC2CN(c3cc(F)c(C4CCC(=O)NC4=O)c(F)c3)C2)c(F)cc1Cl (stereo not drawn) [Compound 39, 1-(4-(2,6-dioxopiperidin-3-yl)-3,5-difluorophenyl)azetidin-3-yl(4-chloro-2-fluoro-5-methylphenyl)carbamate]",100 to 1000 nM,≤ 30 nM
"N#Cc1cc(Cl)cc(NC(=O)OC2CN(c3cc(F)c(C4CCC(=O)NC4=O)c(F)c3)C2)c1 (stereo not drawn) [Compound 47, 1-(4-(2,6-dioxopiperidin-3-yl)-3,5-difluorophenyl)azetidin-3-yl(3-chloro-5-cyanophenyl)carbamate]",100 to 1000 nM,30 to 300 nM
"C[C@@H](NC(=O)OC1CN(c2cc(F)c(C3CCC(=O)NC3=O)c(F)c2)C1)C1CCCCC1 (stereo partly drawn) [Compound 129, 1-(4-(2,6-dioxopiperidin-3-yl)-3,5-difluorophenyl)azetidin-3-yl ((R)-1-cyclohexylethyl)carbamate]",≤ 100 nM,30 to 300 nM
"O=C1CCC(c2c(F)cc(N3CC(NC(=O)Nc4cc(F)cc(Cl)c4)C3)cc2F)C(=O)N1 (stereo not drawn) [Compound 16, 1-(3-chloro-5-fluorophenyl)-3-(1-(4-(2,6-dioxopiperidin-3-yl)-3,5-difluorophenyl)azetidin-3-yl)urea]",100 to 1000 nM,30 to 300 nM
"O=C1CCC(c2c(F)cc(N3CC(OC(=O)N4CCCC4)C3)cc2F)C(=O)N1 (stereo not drawn) [Compound 144, 1-(4-(2,6-dioxopiperidin-3-yl)-3,5-difluorophenyl)azetidin-3-yl pyrrolidine-1-carboxylate]",100 to 1000 nM,> 300 nM
"Cc1ccc(NC(=O)NC2CN(c3ccc(C4CCC(=O)NC4=O)cc3)C2)cc1Cl (stereo not drawn) [Compound 66, 1-(3-chloro-4-methylphenyl)-3-(1-(4-(2,6-dioxopiperidin-3-yl)phenyl)azetidin-3-yl)urea]",100 to 1000 nM,30 to 300 nM
